The source made the active and inactive calls. How the calls were made is not given here.
Tested on: rodent carcinogenicity bioassays, tumor incidence
Test: CCRIS carcinogenicity studies
In short: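 NCI-built, expert-reviewed records of carcinogenicity and related test outcomes (mutagenicity, tumor promotion/inhibition) compiled from published and report sources, historical span 1985-2011, not updated.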

Measured: carcinogen call

CCN(CC)N=O
active: Species: DOG, Route: ORAL, Tumor Site: Type of Lesion: LIVER active; positive | Species: FISH, Route: ORAL, Tumor Site: Type of Lesion: LIVER active; positive | Species: FISH, Strain/Sex: GUPPY POECILIA RETICULATA/MALE, FEMALE, Route: IMMERSION, Dose: 0, 29.4 MG/L IN WATER FOR 28 D (STUDY DURATION: 6 MONTHS), Tumor Site: Type of Lesion: LIVER: MULTIFOCAL HEPATOMA, CHOLANGIOMA active; positive | Species: FISH, Strain/Sex: MEDAKA/MALE,FEMALE, Route: IMMERSION, Dose: 0, 390 PPM IN AQUEOUS BATH FOR 48 HR (STUDY DURATION: 7 MO), Tumor Site: Type of Lesion: LIVER: TUMOR active; positive | Species: FISH, Strain/Sex: SHASTA RAINBOW TROUT/FEMALE, Route: ORAL, Dose: 0, 4, 70, 275, 550, 1100 PPM IN DIET FOR 12 MO (STUDY DURATION: 18 MO), Dose: 0, 4, 70, 275, 550, 1100 PPM IN DIET FOR 12 MO (STUDY DURATION: 18 MO), Tumor Site: Type of Lesion: LIVER: TUMOR active; positive | Species: FISH, Strain/Sex: SHASTA RAINBOW TROUT/MALE, Route: ORAL, Dose: 0, 4, 70, 275, 550, 1100 PPM IN DIET FOR 12 MO (STUDY DURATION: 18 MO), Dose: 0, 4, 70, 275, 550, 1100 PPM IN DIET FOR 12 MO (STUDY DURATION: 18 MO), Tumor Site: Type of Lesion: LIVER: TUMOR active; positive | Species: GUINEA PIG, Route: ORAL, SUBCUTANEOUS, Tumor Site: Type of Lesion: LIVER active; positive | Species: HAMSTER, Route: DERMAL, Tumor Site: Type of Lesion: NASAL CAVITY active; positive | Species: HAMSTER, Route: INHALATION, Tumor Site: Type of Lesion: TRACHEA, LUNG active; positive | Species: HAMSTER, Route: INTRAPERITONEAL, Tumor Site: Type of Lesion: TRACHEA, NASAL CAVITY, BRONCHI, LIVER, Tumor Site: Type of Lesion: TRACHEA, NASAL CAVITY, BRONCHI, LIVER active; positive | Species: HAMSTER, Route: ORAL, Tumor Site: Type of Lesion: TRACHEA, LUNG, NASAL CAVITY, BRONCHI, LIVER, FORESTOMACH, ESOPHAGUS, Tumor Site: Type of Lesion: TRACHEA, LUNG, NASAL CAVITY, BRONCHI, LIVER, FORESTOMACH, ESOPHAGUS active; positive | Species: HAMSTER, Route: SUBCUTANEOUS, Tumor Site: Type of Lesion: NASAL CAVITY, BRONCHI, TRACHEA, LUNG, LIVER, FORESTOMACH, ESOPHAGUS, Tumor Site: Type of Lesion: NASAL CAVITY, BRONCHI, TRACHEA, LUNG, LIVER, FORESTOMACH, ESOPHAGUS active; positive | Species: HAMSTER, Strain/Sex: SYRIAN/FEMALE, Route: INTRATRACHEAL, Dose: 0, 1 MG IN 0.1 ML PHOSPHATE BUFFER 15/WK FOR 4 MO (STUDY DURATION: 237 D), Tumor Site: Type of Lesion: LUNG: ADENOMA OR CARCINOMA, TRACHEA: PAPILLOMA active; positive | Species: HAMSTER, Strain/Sex: SYRIAN/MALE, Route: INTRATRACHEAL, Dose: 0, 0.1, 0.5 MG IN PHOSPHATE BUFFER 1/WK FOR 15 WK (TOTAL DOSE; 1.5; 7.5 MG) (STUDY DURATION: LIFESPAN), Dose: 0, 0.1, 0.5 MG IN PHOSPHATE BUFFER 1/WK FOR 15 WK (TOTAL DOSE; 1.5; 7.5 MG) (STUDY DURATION: LIFESPAN), Tumor Site: Type of Lesion: TRACHEA: PAPILLOMA, LUNG: ADENOMA, SQUAMOUS CARCINOMA, ADENOCARCINOMA, LIVER: HEPATOCELLULAR CARCINOMA, Tumor Site: Type of Lesion: TRACHEA: PAPILLOMA, LUNG: ADENOMA, SQUAMOUS CARCINOMA, ADENOCARCINOMA, LIVER: HEPATOCELLULAR CARCINOMA active; positive | Species: MONKEY, Route: ORAL, INTRAPERITONEAL, Tumor Site: Type of Lesion: LIVER active; positive | Species: MOUSE, Route: DERMAL, Tumor Site: Type of Lesion: NASAL CAVITY active; positive | Species: MOUSE, Route: ORAL, Tumor Site: Type of Lesion: LIVER, ESOPHAGUS, LUNG, FORESTOMACH, Tumor Site: Type of Lesion: LIVER, ESOPHAGUS, LUNG, FORESTOMACH active; positive | Species: MOUSE, Route: SUBCUTANEOUS, INTRAPERITONEAL, Tumor Site: Type of Lesion: LUNG active; positive | Species: MOUSE, Strain/Sex: AKR/MALE, Route: ORAL, Dose: 0, 100 PPM IN DRINKING WATER FOR DURATION OF STUDY (STUDY DURATION: 150 D), Tumor Site: Type of Lesion: LUNG: TUMOR active; positive | Species: MOUSE, Strain/Sex: B6C3F1/FEMALE, Route: INTRAPERITONEAL, Dose: 0, 1.5, 3 UG IN 0.01 ML TRIOCTANOIN/G BW INITIAL DOSE GIVEN ON DAY 1 OF AGE AND 3 SUBSEQUENT DOSES GIVEN 3, 9 AND 15 DAY, Dose: 0, 1.5, 3 UG IN 0.01 ML TRIOCTANOIN/G BW INITIAL DOSE GIVEN ON DAY 1 OF AGE AND 3 SUBSEQUENT DOSES GIVEN 3, 9 AND 15 DAY, Tumor Site: Type of Lesion: LIVER: ADENOMA, CARCINOMA, LUNG: TUMORS active; positive | Species: MOUSE, Strain/Sex: B6C3F1/FEMALE, Route: INTRAPERITONEAL, Dose: 0, 1.5, 3 UG IN 0.01 ML TRIOCTANOIN/G BW INITIAL DOSE GIVEN ON DAY 15 OF AGE AND 3 SUBSEQUENT DOSES GIVEN 3, 9 AND 15 DA, Dose: 0, 1.5, 3 UG IN 0.01 ML TRIOCTANOIN/G BW INITIAL DOSE GIVEN ON DAY 15 OF AGE AND 3 SUBSEQUENT DOSES GIVEN 3, 9 AND 15 DA, Tumor Site: Type of Lesion: LIVER: ADENOMA, CARCINOMA, LUNG: TUMORS active; positive | Species: MOUSE, Strain/Sex: B6C3F1/FEMALE, Route: INTRAPERITONEAL, Dose: 0, 1.5, 3 UG IN 0.01 ML TRIOCTANOIN/G BW INITIAL DOSE GIVEN ON DAY 42 OF AGE AND 3 SUBSEQUENT DOSES GIVEN 3, 9 AND 15 DA, Dose: 0, 1.5, 3 UG IN 0.01 ML TRIOCTANOIN/G BW INITIAL DOSE GIVEN ON DAY 42 OF AGE AND 3 SUBSEQUENT DOSES GIVEN 3, 9 AND 15 DA, Tumor Site: Type of Lesion: LIVER: ADENOMA, CARCINOMA, LUNG: TUMORS active; positive | Species: MOUSE, Strain/Sex: B6C3F1/MALE, Route: INTRAPERITONEAL, Dose: 0, 0.02, 0.07 UMOL/G BW IN 10 µL/G BW TRIOCTANOIN ONCE AT 12 D OF AGE (STUDY DURATION: 9 MO), Dose: 0, 0.02, 0.07 UMOL/G BW IN 10 µL/G BW TRIOCTANOIN ONCE AT 12 D OF AGE (STUDY DURATION: 9 MO), Tumor Site: Type of Lesion: LIVER: HEPATOMA active; positive | Species: MOUSE, Strain/Sex: B6C3F1/MALE, Route: INTRAPERITONEAL, Dose: 0, 1.5, 3 UG IN 0.01 ML TRIOCTANOIN/G BW INITIAL DOSE GIVEN ON DAY 1 OF AGE AND 3 SUBSEQUENT DOSES GIVEN 3, 9 AND 15 DAY, Dose: 0, 1.5, 3 UG IN 0.01 ML TRIOCTANOIN/G BW INITIAL DOSE GIVEN ON DAY 1 OF AGE AND 3 SUBSEQUENT DOSES GIVEN 3, 9 AND 15 DAY, Tumor Site: Type of Lesion: LIVER: ADENOMA, CARCINOMA, LUNG: TUMORS active; positive | Species: MOUSE, Strain/Sex: B6C3F1/MALE, Route: INTRAPERITONEAL, Dose: 0, 1.5, 3 UG IN 0.01 ML TRIOCTANOIN/G BW INITIAL DOSE GIVEN ON DAY 15 OF AGE AND 3 SUBSEQUENT DOSES GIVEN 3, 9 AND 15 DA, Dose: 0, 1.5, 3 UG IN 0.01 ML TRIOCTANOIN/G BW INITIAL DOSE GIVEN ON DAY 15 OF AGE AND 3 SUBSEQUENT DOSES GIVEN 3, 9 AND 15 DA, Tumor Site: Type of Lesion: LIVER: ADENOMA, CARCINOMA, LUNG: TUMORS active; positive | Species: MOUSE, Strain/Sex: B6C3F1/MALE, Route: INTRAPERITONEAL, Dose: 0, 1.5, 3 UG IN 0.01 ML TRIOCTANOIN/G BW INITIAL DOSE GIVEN ON DAY 42 OF AGE AND 3 SUBSEQUENT DOSES GIVEN 3, 9 AND 15 DA, Dose: 0, 1.5, 3 UG IN 0.01 ML TRIOCTANOIN/G BW INITIAL DOSE GIVEN ON DAY 42 OF AGE AND 3 SUBSEQUENT DOSES GIVEN 3, 9 AND 15 DA, Tumor Site: Type of Lesion: LIVER: ADENOMA, CARCINOMA, LUNG: TUMORS active; positive
